Assay [1] deals with C. difficile clinical isolates. Particulars: for MIC: Clostridioides difficile, 24 h, agar dilution; for MIC range: across the twelve clinical isolates tested. In general terms: Agar dilution tests growth on a series of plates holding different concentrations.
Assay [2] has as its system C. difficile biofilms (strains R20291, CD 630). The assay can be described thus: C. difficile in vitro biofilm studies (MIC, MBIC, CFU/mL, Crystal Violet biomass). In kind it is cell-based. As to conditions: for MBIC: Minimum Biofilm Inhibitory Concentration; for MIC: Clostridioides difficile. On the procedure: A basic flow chart outlining the experimental procedure used in these studies may be seen in FIG. 14. Briefly, C. difficile laboratory strain R20291 was grown in Brain heart infusion-supplemented (BHIS) medium. […] Biofilm formation was established via anaerobic incubation of the cultures at 37° C. for 24 hrs. Early biofilm formation was established at 4 hrs, whereas late biofilm formation was established at 24 hrs, 48 hrs, and 72 hrs. Following biofilm formation, the BHIS medium was removed and replaced with fresh media comprising no antibiotic (control), ibezapolstat (IBZ), Fidaxomicin (FDX), or metronidazole (MTZ). The cultures were then anaerobically incubated for 24 hrs or subjected to time course tests. Biofilm biomass was measured using Crystal Violet staining. […] Data was measured and recorded using Cytation 3 calibrated to read at A570. Data was analyzed by comparing percent growth of antibiotic treated cultures with controls.

Assay [3] has as its system gut microbiome. Description: Germ-free humanized mouse study, 16S rRNA gut microbiome analysis. The class given is in vivo. As to conditions: humanized germ-free mice. The text has this: Germ-free (GF) mice (six per group) were randomly assigned to IBZ, VAN, FDX, MTZ, or control groups.
An oral gavage of healthy human-derived fecal slurry was given to GF mice. The humanized mice were housed in a sterile biological safety cabinet (BSC) for one week to allow the donor gut microbiome to establish. Humanized mice were then moved to sterile, micro-isolator cages and pellet chow diet was exchanged for a powder chow diet. The humanized mice were then allowed one week to acclimate to the powder chow diet. In addition, a stool sample was obtained prior to the change in diet (baseline 1). At day 14, once the mice acclimated to the powder chow diet, a second baseline stool sample was obtained (baseline 2) and antibiotic treatment was started. The appropriate antibiotics were added to the powder chow diet for 10 days. At day 16, two days after beginning antibiotic treatment, another stool sample was collected (ABX-1). During the 10-day antibiotic treatment, powder chow dishes were refilled each day with fresh chow containing the randomly assigned antibiotic. Stool samples were again collected at day 24 (ABX-2).
To assess antibiotic microbiome effect, 16S rRNA metagenomics was used on stool samples that were collected at day 0 (baseline 1 and baseline 2) and after 2 and […] of treatment with antibiotics. Bulk DNA was extracted from stool samples using the DNeasy® PowerSoil® Kit. The V4 region of the bacterial 16S rRNA gene was sequenced using the Illumina MiSeq and CLC Genomics Workbench. Raw sequencing reads were processed and curated using the mothur (v.1.48.0) software package and the mothur MiSeq SOP was followed as outlined in Schloss, P. D., et al., Introducing mothur: open-source, platform-independent, community supported software for describing and comparing microbial communities. Appl Environ Microbiol, 2009. 75(23): p. 7537-41 (see also, Kozich, J. J., et al., Development of a dual-index sequencing strategy and curation pipeline for analyzing amplicon sequence data on the MiSeq Illumina sequencing platform. Appl Environ Microbiol, 2013. 79(17): p. 5112-20.). All data visualization and statistical analysis were performed using R studio (R Core Team (2023). R: A Language and Environment for Statistical Computing, Vienna, Austria.).

Assay [4] deals with gut microbiome. The assay can be described thus: Phase 1 healthy volunteer study, gut microbiome (metagenomics, qPCR). Particulars: phase 1 healthy volunteer study; treatment over 10 days; shotgun metagenomic sequencing. In kind it is in vivo, human. For orientation: Quantitative PCR measures a nucleic acid by following its amplification.
Assay [5] deals with bacterial infections in the gut. As to conditions: treatment of bacterial infections in the gut; cited from earlier work.
Setting [6] is: C. difficile clinical isolate MT 4802.
Setting [7] is: C. difficile clinical isolate MT 5071.
The mark [8] stands for this setting: C. difficile clinical isolate MT 5342.
Where [9] appears, read: C. difficile clinical isolate MT 5364.
Where [10] appears, read: C. difficile clinical isolate MT 5382.
Setting [11] is: C. difficile clinical isolate MT 5426.
[12] abbreviates: C. difficile clinical isolate MT 5493.
[13] abbreviates: C. difficile clinical isolate MT 5515.
Where [14] appears, read: C. difficile clinical isolate MT 5529.
The mark [15] stands for this setting: C. difficile clinical isolate MT 5536.
Where [16] appears, read: C. difficile clinical isolate SH 1132.
The mark [17] stands for this setting: C. diff. strain R20291, read-out: MIC.
Where [18] appears, read: antibiotic in powder chow 10 days.
Where [19] appears, read: antibiotic in powder chow 10 days, compared to Baseline 2 (D14).

Data on three molecules can be found in patent US20260144796A1, “Compounds and Methods for Improving Health” (Acurx Pharmaceuticals, Inc., priority 2022, published 2026).

Values after ≈ are worked out from the molar mass of the structure shown. Where two headings read alike, the source gives them in different places.

Regarding `CCc1c(Cl)c(O)c(Cl)c(O)c1C(=O)O[C@H]1[C@H](O)[C@H](OC)[C@H](OC/C2=C\C=C\C[C@H](O)/C(C)=C/[C@H](CC)[C@@H](O[C@@H]3OC(C)(C)[C@@H](OC(=O)C(C)C)[C@H](O)[C@@H]3O)/C(C)=C/C(C)=C/C[C@@H]([C@@H](C)O)OC2=O)O[C@@H]1C` [Fidaxomicin, fidaxomicin], the MIC in assay [1] (setting [6]) came out at 0.006 µg/mL (≈ 0.00567 µM); in assay [1] (setting [7]) it was 1 µg/mL (≈ 0.945 µM); in assay [1] (setting [8]), 1 µg/mL (≈ 0.945 µM); in assay [1] (setting [9]), 1 µg/mL (≈ 0.945 µM); in assay [1] (setting [10]) it was 1 µg/mL (≈ 0.945 µM); in assay [1] (setting [11]), 0.5 µg/mL (≈ 0.473 µM). For the same molecule, the MIC came to 1 µg/mL (≈ 0.945 µM) in assay [1] (setting [12]); 2 µg/mL (≈ 1.89 µM) in assay [1] (setting [13]); 0.5 µg/mL (≈ 0.473 µM) in assay [1] (setting [14]); 1 µg/mL (≈ 0.945 µM) in assay [1] (setting [15]); 0.5 µg/mL (≈ 0.473 µM) in assay [1] (setting [16]); 0.06 µg/mL (≈ 0.0567 µM) in assay [2] (setting [17]). Also, the MIC range in assay [1] is below 0.03125 to 2 µg/mL. In assay [2] (C. diff. strain R20291), this molecule returned an MBIC of 0.125 µg/mL. Besides, the “change of Firmicutes (in words)” value in the assay on gut microbiome [3] (phylum level) is recorded as “increased”. The “proportional change of Bacteroidetes (in words)” value in the assay on gut microbiome [3] (phylum level) is listed as “proportional increases”. Also, the “Average Change in Metric ± SD, Bray-Curtis Dissim. to Baseline 1” value in the assay with gut microbiome [3] (setting [18]) was found to be 0.62 ± 0.02. Further, the “Average Change in Metric ± SD, Bray-Curtis Dissim. to Baseline 2” value with gut microbiome [3] (setting [18]) came to 0.39 ± 0.03. Besides, the “Avg. Change in Relative Abundance ± SD, Bacteroidetes” value in the assay on gut microbiome [3] (setting [19]) was 9.9% ± 2.9%. In the assay with gut microbiome [3] (setting [19]), the “Avg. Change in Relative Abundance ± SD, Proteobacteria” value is reported as 10.2% ± 3%. The “Avg. Change in Relative Abundance ± SD, Verrucomicrobia (Akkermansia)” value in the assay with gut microbiome [3] (setting [19]) is on record as 3.6% ± 2.8%.
In the case of `Cc1ncc([N+](=O)[O-])n1CCO` [Metronidazole, metronidazole], the MIC in assay [1] (setting [6]) was 0.25 µg/mL (≈ 1.46 µM); in assay [1] (setting [7]) it was 1 µg/mL (≈ 5.84 µM); in assay [1] (setting [8]), 2 µg/mL (≈ 11.7 µM); in assay [1] (setting [9]), 2 µg/mL (≈ 11.7 µM); in assay [1] (setting [10]), 2 µg/mL (≈ 11.7 µM); in assay [1] (setting [11]) it was 4 µg/mL (≈ 23.4 µM). In addition, the MIC is 2 µg/mL (≈ 11.7 µM) in assay [1] (setting [12]); 4 µg/mL (≈ 23.4 µM) in assay [1] (setting [13]); 2 µg/mL (≈ 11.7 µM) in assay [1] (setting [14]); 0.25 µg/mL (≈ 1.46 µM) in assay [1] (setting [15]); 1 µg/mL (≈ 5.84 µM) in assay [1] (setting [16]); 0.5 µg/mL (≈ 2.92 µM) in assay [2] (setting [17]). The MIC range in assay [1] fell in the range of 0.25 to 8 µg/mL. The MBIC in assay [2] (C. diff. strain R20291) stood at 0.5 µg/mL. Also, in assay [2] (R20291 or CD 630, at higher concentrations), the “Eagle effect in 24-hour biofilms” value is on record as “Eagle effect was observed”. The “relative abundance of Proteobacteria (in words)” value with gut microbiome [3] (phylum level) was “proportional increases”; in the assay on gut microbiome [3] (phylum level, listed as MTZ), “increased”. Further, the “relative abundance of Verrucomicrobiota (in words)” value with gut microbiome [3] (phylum level) is “increased”. The “Average Change in Metric ± SD, Bray-Curtis Dissim. to Baseline 1” value with gut microbiome [3] (setting [18]) amounted to 0.92 ± 0.02. Further, the “Average Change in Metric ± SD, Bray-Curtis Dissim. to Baseline 2” value in the assay with gut microbiome [3] (setting [18]) was 0.92 ± 0.04. Moreover, the “Avg. Change in Relative Abundance ± SD, Firmicutes” value in the assay on gut microbiome [3] (setting [19]) was 36.5% ± 5.1%. In the assay with gut microbiome [3] (setting [19]), the “Avg. Change in Relative Abundance ± SD, Proteobacteria” value was 15.1% ± 3.8%.
In the case of `CN[C@H](CC(C)C)C(=O)N[C@H]1C(=O)N[C@@H](CC(N)=O)C(=O)N[C@H]2C(=O)N[C@H]3C(=O)N[C@H](C(=O)N[C@H](C(=O)O)c4cc(O)cc(O)c4-c4cc3ccc4O)[C@H](O)c3ccc(c(Cl)c3)Oc3cc2cc(c3O[C@@H]2O[C@H](CO)[C@@H](O)[C@H](O)[C@H]2O[C@H]2C[C@](C)(N)[C@H](O)[C@H](C)O2)Oc2ccc(cc2Cl)[C@H]1O` [Vancomycin, vancomycin], in the assay with gut microbiome [4], the “microbiome profile of treated subjects” value is reported as “larger proportion of Proteobacteria”. Besides, the MIC was 1 µg/mL (≈ 0.69 µM) in assay [1] (setting [6]); 8 µg/mL (≈ 5.52 µM) in assay [1] (C. difficile clinical isolate MT 4883); 4 µg/mL (≈ 2.76 µM) in assay [1] (setting [7]); 8 µg/mL (≈ 5.52 µM) in assay [1] (setting [8]); 4 µg/mL (≈ 2.76 µM) in assay [1] (setting [9]); 1 µg/mL (≈ 0.69 µM) in assay [1] (setting [10]). The MIC was 4 µg/mL (≈ 2.76 µM) in assay [1] (setting [11]); 1 µg/mL (≈ 0.69 µM) in assay [1] (setting [12]); 4 µg/mL (≈ 2.76 µM) in assay [1] (setting [13]); 1 µg/mL (≈ 0.69 µM) in assay [1] (setting [14]); 2 µg/mL (≈ 1.38 µM) in assay [1] (setting [15]); 4 µg/mL (≈ 2.76 µM) in assay [1] (setting [16]). Moreover, in assay [2], the MIC worked out at 1 µg/mL (≈ 0.69 µM). Besides, the MIC range in assay [1] lay in the range of 1 to 16 µg/mL. Moreover, in assay [2] (0.4× MIC), the “C. diff growth (CFU/mL) and biomass at sub-MIC compared to control” value was “reduced”. Besides, in assay [2] (40× MIC, after 48 hours of treatment), the “growth in early biofilms at supra-MIC” value was “reduced growth”. In assay [2] (C. diff. strain R20291), this molecule gave an MBIC of 1 µg/mL. Besides, the “relative abundance of Proteobacteria (in words)” value in the assay with gut microbiome [3] (phylum level) is listed as “proportional increases”; with gut microbiome [3] (phylum level, listed as VAN) it was “increased”. The “relative abundance of Verrucomicrobiota (in words)” value in the assay with gut microbiome [3] (phylum level) is recorded as “increased”. Further, the “Average Change in Metric ± SD, Bray-Curtis Dissim. to Baseline 1” value in the assay on gut microbiome [3] (setting [18]) amounted to 0.84 ± 0.02. Besides, the “Average Change in Metric ± SD, Bray-Curtis Dissim. to Baseline 2” value in the assay on gut microbiome [3] (setting [18]) is 0.75 ± 0.03. The “Avg. Change in Relative Abundance ± SD, Proteobacteria” value in the assay with gut microbiome [3] (setting [19]) is 37.2% ± 2.8%. Further, in assay [5], the “patients having a recurring infection after treatment is discontinued” value is reported as 20-25%.
